From patent US20250115577A1, “BCL-2 Inhibitors” (Eil Therapeutics, Inc., priority 2021, published 2025)
Read-outs that look alike come from different tables or passages of the source.

Assays:
BCL-xL = BCL-xL (Homo sapiens (Human), UniProt Q07817); assay: BCL-xL TR-FRET Assay (primary PPI inhibition); type: binding; settings: 60 min incubation, read-out: BCLxL IC50
Outline: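 TR-FRET competition of His-tagged BCL-xL (10.5 ng) binding to dye-labeled peptide ligand, with anti-His Tb donor; compound added from 200× stock, 0.5% DMSO final. After 60 min incubation, read at 340 nm excitation, 620/665 nm emission, 60 µs delay, 500 µs integration.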

[1] = system: caspase-3 and -7 activities in RS4-11 cells; assay: Caspase-3/7 activation (Caspase-Glo 3/7) in RS4-11 cells; type: cell-based; settings: 3.5 h, read-out: Cas-3/7 EC50
Outline: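 RS4-11 cells exposed to graded compound concentrations for 3.5 h at 37 °C, 5% CO2. Caspase-3/7 activity then read as luminescence after 30 min at rt with a DEVD-based luminogenic substrate reagent.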

RS4-11 cells = assay: Cell viability assay (CellTiter-Glo), RS4-11; type: cell-based; settings: 3 days of incubation
Outline: (§1)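 4000 cells/well in DMEM (HEK293, adhered overnight) or RPMI (RS4-11, MOLT-4) with 10% FBS; compounds added at 0.2% DMSO final. After 3 days, viability read by CellTiter-Glo luminescence.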

MOLT-4 cells = assay: Cell viability assay (CellTiter-Glo), MOLT-4; type: cell-based; settings: 3 days of incubation
Outline: as §1

HEK293 cells = assay: Cell viability assay (CellTiter-Glo), HEK293; type: cell-based; settings: 3 days of incubation
Outline: as §1

BCL-2 = BCL-2 (Homo sapiens (Human), UniProt P10415); assay: BCL-2 TR-FRET Assay (primary PPI inhibition); type: binding; settings: 60 min incubation, read-out: BCL2 IC50
Outline: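 His-tagged BCL-2 (3 ng) with anti-His Tb donor, dye-labeled acceptor and BCL-2 peptide ligand; compound added at 200× stock, final DMSO 0.5%. 60 min incubation, then TR-FRET read at 340 nm excitation, 620/665 nm emission, 60 µs delay, 500 µs integration.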

BCL-2 [G101V] = BCL-2 [G101V] (Homo sapiens (Human), UniProt P10415, G101V); assay: BCL-2 [G101V] TR-FRET Assay (primary PPI inhibition); type: binding; settings: 60 min incubation, read-out: BCL2[G101V] IC50
Procedure: Example C. BCL-2 [G101V]TR-FRET Assay
The following assay concentrations and times were used: 0.22 ng/μl of BCL-2 (SinoBiological, #10195-H08E1), 5 μL of 1:100 anti-His Tb-labeled donor, 5 μL of 1:100 Dye-labeled acceptor, 5 μL of 1:40 BCL-2 Peptide Ligand (BPS Bioscience, #50223), and 2 μL of 200× test compound, with 60 min incubation time (final concentration of DMSO 0.5%). The results of the assay were read using a plate reader with the following parameters: TR FRET, 340ex/620 and 665em; 60 usec Delay; and 500 usec integration.
Instrumentation: CLARIOstar Plus (BMG LABTECH); Biomek FX for liquid handling (Beckman Coulter).

[2] = Cell viability assay (CellTiter-Glo), HEK293; type: cell-based; settings: human, HEK293 cells, 3 days of incubation
Outline: as §1

Chain of BCL-xL (Q07817 whole entry): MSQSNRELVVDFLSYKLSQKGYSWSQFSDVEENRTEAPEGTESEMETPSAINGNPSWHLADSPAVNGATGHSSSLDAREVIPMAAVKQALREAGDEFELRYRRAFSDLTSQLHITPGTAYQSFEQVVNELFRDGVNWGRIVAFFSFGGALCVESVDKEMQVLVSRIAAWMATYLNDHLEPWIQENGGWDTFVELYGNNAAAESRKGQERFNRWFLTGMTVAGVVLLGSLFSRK

| Compound | IC50 (BCL-xL) [nM] | EC50 [1] [nM] | CC50 (RS4-11 cells) [nM] | CC50 (MOLT-4 cells) [nM] | CC50 (HEK293 cells) [nM] | IC50 (BCL-2) [nM] | EC50 ([1]; Homo sapiens) [nM] | CC50 (RS4-11 cells; Homo sapiens, RS4-11, 72 h) [nM] | CC50 (MOLT-4 cells; Homo sapiens, 72 h) [nM] | IC50 (BCL-2 [G101V]) [nM] | CC50 at 3 days [2] [nM] |
| --- | --- | --- | --- | --- | --- | --- | --- | --- | --- | --- | --- |
| COc1cccc(CN(C(=O)c2cc(-c3cc(Cl)c(F)cc3C(=O)N3Cc4ccccc4C[C@H]3CN3CCOCC3)n(C)c2C)c2ccc(C#N)cc2)c1C [Compound 73, 5-[5-chloro-4-fluoro-2-[(3S)-3-(morpholinomethyl)-3,4-dihydro-1H-isoquinoline-2-carbonyl]phenyl]-N-(4-cyanophenyl)-N-[(3-methoxy-2-methyl-phenyl)methyl]-1,2-dimethyl-pyrrole-3-carboxamide] | 2000 to 5000 | > 500 | > 200 | > 10000 | 10000 to 25000 | > 50 | – | – | – | – | – |
| COc1cccc(CN(C(=O)c2cc(-c3cc(Cl)c(F)cc3C(=O)N3Cc4ccccc4C[C@H]3CN3CCOCC3)n(C)c2C)c2ccc(C#N)cc2)c1C [Compound 29, 5-[5-chloro-4-fluoro-2-[(3S)-3-(morpholinomethyl)-3,4-dihydro-1H-isoquinoline-2-carbonyl]phenyl]-N-(4-cyanophenyl)-N-[(3-methoxy-2-methyl-phenyl)methyl]-1,2-dimethyl-pyrrole-3-carboxamide] | – | – | – | – | > 25000 | 10 to 50 | > 500 | 100 to 200 | > 10000 | – | – |
| N#Cc1ccccc1CN(C(=O)c1cc(-c2cc(Cl)ccc2C(=O)N2Cc3ccccc3C[C@H]2CN2CCOCC2)n2c1CCCC2)c1ccc(O)cc1 [Compound 3, 3-[5-chloro-2-[(3S)-3-(morpholinomethyl)-3,4-dihydro-1H-isoquinoline-2-carbonyl]phenyl]-N-[(2-cyanophenyl)methyl]-N-(4-hydroxyphenyl)-5,6,7,8-tetrahydroindolizine-1-carboxamide] | > 5000 | – | – | – | – | ≤ 5 | 200 to 500 | 100 to 200 | ≤ 5000 | ≤ 100 | 10000 to 25000 |
| COc1cccc(CN(C(=O)c2cc(-c3cc(C(F)F)c(Cl)cc3C(=O)N3Cc4ccccc4C[C@H]3CN3CCOCC3)n(C)c2C)c2ccc(O)cc2)c1C [Compound 43, 5-[4-chloro-5-(difluoromethyl)-2-[(3S)-3-(morpholinomethyl)-3,4-dihydro-1H-isoquinoline-2-carbonyl]phenyl]-N-(4-hydroxyphenyl)-N-[(3-methoxy-2-methyl-phenyl)methyl]-1,2-dimethyl-pyrrole-3-carboxamide] | 2000 to 5000 | – | – | – | – | ≤ 5 | > 500 | > 200 | ≤ 5000 | 100 to 1000 | > 25000 |
| Cc1c(C(=O)N(Cc2ccccc2C#N)c2ccc(O)cc2)cc(-c2cc(Cl)ccc2C(=O)N2Cc3ccccc3C[C@H]2CN2CCOCC2)n1C [Compound 6, 5-[5-chloro-2-[(3S)-3-(morpholinomethyl)-3,4-dihydro-1H-isoquinoline-2-carbonyl]phenyl]-N-[(2-cyanophenyl)methyl]-N-(4-hydroxyphenyl)-1,2-dimethyl-pyrrole-3-carboxamide] | ≤ 2000 | – | – | – | – | ≤ 5 | 200 to 500 | 100 to 200 | 5000 to 10000 | ≤ 100 | 10000 to 25000 |
| COc1ccccc1CN(C(=O)c1cc(-c2cc(F)ccc2C(=O)N2Cc3ccccc3C[C@H]2CN2CCOCC2)n(C)c1C)c1ccc(O)cc1 [Compound 54, 5-[5-fluoro-2-[(3S)-3-(morpholinomethyl)-3,4-dihydro-1H-isoquinoline-2-carbonyl]phenyl]-N-(4-hydroxyphenyl)-N-[(2-methoxyphenyl)methyl]-1,2-dimethyl-pyrrole-3-carboxamide] | ≤ 2000 | – | – | – | – | 5 to 10 | > 500 | 100 to 200 | ≤ 5000 | ≤ 100 | > 25000 |
| COc1cccc(CN(C(=O)c2cc(-c3cc(F)c(OC(F)F)cc3C(=O)N3Cc4ccccc4C[C@H]3CN3CCOCC3)n(C)c2C)c2ccc(O)cc2)c1C [Compound 16, 5-[4-(difluoromethoxy)-5-fluoro-2-[(3S)-3-(morpholinomethyl)-3,4-dihydro-1H-isoquinoline-2-carbonyl]phenyl]-N-(4-hydroxyphenyl)-N-[(3-methoxy-2-methyl-phenyl)methyl]-1,2-dimethyl-pyrrole-3-carboxamide] | 2000 to 5000 | – | – | – | – | 5 to 10 | 200 to 500 | > 200 | ≤ 5000 | > 1000 | > 25000 |
| COc1cccc(CN(C(=O)c2cc(-c3cc([N+](=O)[O-])ccc3C(=O)N3Cc4ccccc4C[C@H]3CN3CCOCC3)n(C)c2C)c2ccc3[nH]ncc3c2)c1C [Compound 65, N-(1H-indazol-5-yl)-N-[(3-methoxy-2-methyl-phenyl)methyl]-1,2-dimethyl-5-[2-[(3S)-3-(morpholinomethyl)-3,4-dihydro-1H-isoquinoline-2-carbonyl]-5-nitro-phenyl]pyrrole-3-carboxamide] | > 5000 | – | – | – | – | 10 to 50 | > 500 | > 200 | ≤ 5000 | > 1000 | 10000 to 25000 |
| COc1cccc(CN(C(=O)c2cc(-c3cc(Cl)ccc3C(=O)N3Cc4ccccc4C[C@H]3CN3CCOCC3)n(C)c2C)c2ccc3[nH]ncc3c2)c1C [Compound 70, 5-[5-chloro-2-[(3S)-3-(morpholinomethyl)-3,4-dihydro-1H-isoquinoline-2-carbonyl]phenyl]-N-(1H-indazol-5-yl)-N-[(3-methoxy-2-methyl-phenyl)methyl]-1,2-dimethyl-pyrrole-3-carboxamide] | > 5000 | – | – | – | – | 5 to 10 | > 500 | > 200 | ≤ 5000 | > 1000 | > 25000 |
| COc1cccc(CN(C(=O)c2cc(-c3cc(Cl)ccc3C(=O)N3Cc4ccccc4C[C@H]3CN3CCOCC3)n(C)c2C)c2ccc(O)cc2)c1C [Compound 7, 5-[5-chloro-2-[(3S)-3-(morpholinomethyl)-3,4-dihydro-1H-isoquinoline-2-carbonyl]phenyl]-N-(4-hydroxyphenyl)-N-[(3-methoxy-2-methyl-phenyl)methyl]-1,2-dimethyl-pyrrole-3-carboxamide] | 2000 to 5000 | – | – | – | – | ≤ 5 | ≤ 200 | ≤ 100 | 5000 to 10000 | ≤ 100 | 10000 to 25000 |
